Earlier results, collected in PMC7744997 (Clinical Infectious Diseases: An Official Publication of …, 2020).

Tested on: RSV
Conditions: cited from earlier work

Structure (SMILES)	Outcome on viral load endpoints in clinical studies
Cc1ccc([C@]23Cn4cccc4C(=O)N2CCN3C(=O)c2conc2C)cn1 [BTA-C585]	failure to meet viral load endpoints
Cc1cn2nc([C@@H]3CCCCN3C(=O)c3cc(Cl)ccc3NS(C)(=O)=O)cc2nc1N1CC[C@H](N)C1 [presatovir]	failure to meet viral load endpoints
